Experimental data from patent US9518018B2, “3-alkoxy, thioalkyl and amino-4-amino-6-(substituted)picolinates and their use as herbicides” (Dow AgroSciences LLC, priority 2011, dated 2016).

Test system: desired test plant species
Test: Foliar-applied postemergence herbicidal activity in direct seeded rice (Table 6)
Assay type: in vivo
Details: 21 DAA
From the text: Seeds or nutlets of the desired test plant species were planted in a soil matrix prepared by mixing a loam soil (43 percent silt, 19 percent clay, and 38 percent sand, with a pH of about 8.1 and an organic matter content of about 1.5 percent) and river sand in an 80 to 20 ratio. The soil matrix was contained in plastic pots with a surface area of 139.7 cm^2. When required to ensure good germination and healthy plants, a fungicide treatment and/or other chemical or physical treatment was applied. The plants were grown for 10-17 d in a greenhouse with an approximate 14-h photoperiod which was maintained at about 29° C. during the day and 26° C. during the night. Nutrients and water were added on a regular basis and supplemental lighting was provided with overhead metal halide 1000-Watt lamps as necessary. The plants were employed for testing when they reached the second or third true leaf stage. Treatments consisted of compounds 45, 34, and 66. Weighed amounts of technical compounds were placed in individual 25 mL glass vials and dissolved in 8 mL of 97:3 v/v acetone-DMSO to obtain stock solutions. […] The spray application solutions were prepared by removing 4 mL of the stock solution and diluting with 4 mL of 97:3 v/v acetone-DMSO and continued serial dilution to obtain 1⁄2×, 1⁄4×, 1⁄8×, and 1/16× rates of the high rate. Spray solutions were diluted to the appropriate final concentrations with the addition of 8 mL of an aqueous mixture of 1.875% (v/v) Agri-dex crop oil concentrate. The final 12-mL spray solutions each contained 1.25% (v/v) Agri-dex crop oil concentrate, 32.3% acetone, and 1.0% DMSO. Compound requirements are based upon a 12 mL application volume at a rate of 187 L/ha. Spray solutions were applied to the plant material with an overhead Mandel track sprayer equipped with […] nozzles calibrated to deliver 187 L/ha over an application area of 0.503 square meters (m^2) at a spray height of 18 inches ([…]) above average plant canopy height. Control plants were sprayed in the same manner with the solvent blank. The treated plants and control plants were placed in a greenhouse as described above and watered by sub-irrigation to prevent wash-off of the test compounds. After approximately 3 weeks, the condition of the test plants, compared with that of the untreated plants, was determined visually and scored on a scale of 0 to 100 percent where 0 corresponds to no injury and 100 corresponds to complete kill. By applying the well-accepted probit analysis as described by J. Berkson in Journal of the […], 48, 565 (1953) and by D. Finney in “Probit Analysis” Cambridge University Press (1952) or by plotting the mean data and fitting a logarithmic curve to the portion of the data where there was a dose response using Microsoft Excel®, the above data can be used to calculate GR50 and GR90 values, which are defined as growth reduction factors that correspond to the effective dose of herbicide required to kill or control 50 percent or 90 percent, respectively, of a target plant.

COc1c(C(=O)O)nc(-c2ccc(Cl)c(OC)c2F)c(F)c1N [Compound 45, 4-amino-6-(4-chloro-2-fluoro-3-methoxyphenyl)-5-fluoro-3-methoxypicolinic acid]
Mean Visual Injury (%)-21 Days After Application AESSE (AESSE (Aeschynomene sensitiva, sensitive jointvetch), 4.38 g ae/ha): 100%
Mean Visual Injury (%)-21 Days After Application AESSE (AESSE (Aeschynomene sensitiva, sensitive jointvetch), 8.75 g ae/ha): 100%
Mean Visual Injury (%)-21 Days After Application AESSE (AESSE (Aeschynomene sensitiva, sensitive jointvetch), 17.5 g ae/ha): 100%
Mean Visual Injury (%)-21 Days After Application AESSE (AESSE (Aeschynomene sensitiva, sensitive jointvetch), 35 g ae/ha): 100%
Mean Visual Injury (%)-21 Days After Application AESSE (AESSE (Aeschynomene sensitiva, sensitive jointvetch), 70 g ae/ha): 100%
GR50 AESSE (AESSE (Aeschynomene sensitiva, sensitive jointvetch), dose to kill or control 50 percent): <4.38 g ae/ha
GR90 AESSE (AESSE (Aeschynomene sensitiva, sensitive jointvetch), dose to kill or control 90 percent): <4.38 g ae/ha
Mean Visual Injury (%)-21 Days After Application BRAPP (BRAPP (Brachiaria platyphylla, broadleaf signalgrass), 4.38 g ae/ha): 72%
Mean Visual Injury (%)-21 Days After Application BRAPP (BRAPP (Brachiaria platyphylla, broadleaf signalgrass), 8.75 g ae/ha): 80%
Mean Visual Injury (%)-21 Days After Application BRAPP (BRAPP (Brachiaria platyphylla, broadleaf signalgrass), 17.5 g ae/ha): 95%
Mean Visual Injury (%)-21 Days After Application BRAPP (BRAPP (Brachiaria platyphylla, broadleaf signalgrass), 35 g ae/ha): 95%
Mean Visual Injury (%)-21 Days After Application BRAPP (BRAPP (Brachiaria platyphylla, broadleaf signalgrass), 70 g ae/ha): 98%
GR50 BRAPP (BRAPP (Brachiaria platyphylla, broadleaf signalgrass), dose to kill or control 50 percent): <4.38 g ae/ha
GR90 BRAPP (BRAPP (Brachiaria platyphylla, broadleaf signalgrass), dose to kill or control 90 percent): 22.0 g ae/ha
Mean Visual Injury (%)-21 Days After Application CYPDI (CYPDI (Cyperus difformis, small-flower flatsedge), 4.38 g ae/ha): 75%
Mean Visual Injury (%)-21 Days After Application CYPDI (CYPDI (Cyperus difformis, small-flower flatsedge), 8.75 g ae/ha): 97%
Mean Visual Injury (%)-21 Days After Application CYPDI (CYPDI (Cyperus difformis, small-flower flatsedge), 17.5 g ae/ha): 98%
Mean Visual Injury (%)-21 Days After Application CYPDI (CYPDI (Cyperus difformis, small-flower flatsedge), 35 g ae/ha): 100%
Mean Visual Injury (%)-21 Days After Application CYPDI (CYPDI (Cyperus difformis, small-flower flatsedge), 70 g ae/ha): 100%
GR50 CYPDI (CYPDI (Cyperus difformis, small-flower flatsedge), dose to kill or control 50 percent): <4.38 g ae/ha
GR90 CYPDI (CYPDI (Cyperus difformis, small-flower flatsedge), dose to kill or control 90 percent): 8.8 g ae/ha
Mean Visual Injury (%)-21 Days After Application CYPES (CYPES (Cyperus esculentus, yellow nutsedge), 4.38 g ae/ha): 73%
Mean Visual Injury (%)-21 Days After Application CYPES (CYPES (Cyperus esculentus, yellow nutsedge), 8.75 g ae/ha): 78%
Mean Visual Injury (%)-21 Days After Application CYPES (CYPES (Cyperus esculentus, yellow nutsedge), 17.5 g ae/ha): 85%
Mean Visual Injury (%)-21 Days After Application CYPES (CYPES (Cyperus esculentus, yellow nutsedge), 35 g ae/ha): 99%
Mean Visual Injury (%)-21 Days After Application CYPES (CYPES (Cyperus esculentus, yellow nutsedge), 70 g ae/ha): 95%
GR50 CYPES (CYPES (Cyperus esculentus, yellow nutsedge), dose to kill or control 50 percent): <4.38 g ae/ha
GR90 CYPES (CYPES (Cyperus esculentus, yellow nutsedge), dose to kill or control 90 percent): 27.1 g ae/ha
Mean Visual Injury (%)-21 Days After Application CYPIR (CYPIR (Cyperus iria, rice flatsedge), 4.38 g ae/ha): 95%
Mean Visual Injury (%)-21 Days After Application CYPIR (CYPIR (Cyperus iria, rice flatsedge), 8.75 g ae/ha): 97%
Mean Visual Injury (%)-21 Days After Application CYPIR (CYPIR (Cyperus iria, rice flatsedge), 17.5 g ae/ha): 100%
Mean Visual Injury (%)-21 Days After Application CYPIR (CYPIR (Cyperus iria, rice flatsedge), 35 g ae/ha): 100%
Mean Visual Injury (%)-21 Days After Application CYPIR (CYPIR (Cyperus iria, rice flatsedge), 70 g ae/ha): 100%
GR50 CYPIR (CYPIR (Cyperus iria, rice flatsedge), dose to kill or control 50 percent): <4.38 g ae/ha
GR90 CYPIR (CYPIR (Cyperus iria, rice flatsedge), dose to kill or control 90 percent): <4.38 g ae/ha
Mean Visual Injury (%)-21 Days After Application ECHCG (ECHCG (Echinochloa crus-galli, barnyardgrass), 4.38 g ae/ha): 92%
Mean Visual Injury (%)-21 Days After Application ECHCG (ECHCG (Echinochloa crus-galli, barnyardgrass), 8.75 g ae/ha): 92%
Mean Visual Injury (%)-21 Days After Application ECHCG (ECHCG (Echinochloa crus-galli, barnyardgrass), 17.5 g ae/ha): 95%
Mean Visual Injury (%)-21 Days After Application ECHCG (ECHCG (Echinochloa crus-galli, barnyardgrass), 35 g ae/ha): 98%
Mean Visual Injury (%)-21 Days After Application ECHCG (ECHCG (Echinochloa crus-galli, barnyardgrass), 70 g ae/ha): 100%
GR50 ECHCG (ECHCG (Echinochloa crus-galli, barnyardgrass), dose to kill or control 50 percent): <4.38 g ae/ha
GR90 ECHCG (ECHCG (Echinochloa crus-galli, barnyardgrass), dose to kill or control 90 percent): <4.38 g ae/ha
Mean Visual Injury (%)-21 Days After Application ECHCO (ECHCO (Echinochloa colonum, junglerice), 4.38 g ae/ha): 80%
Mean Visual Injury (%)-21 Days After Application ECHCO (ECHCO (Echinochloa colonum, junglerice), 8.75 g ae/ha): 88%
Mean Visual Injury (%)-21 Days After Application ECHCO (ECHCO (Echinochloa colonum, junglerice), 17.5 g ae/ha): 95%
Mean Visual Injury (%)-21 Days After Application ECHCO (ECHCO (Echinochloa colonum, junglerice), 35 g ae/ha): 98%
Mean Visual Injury (%)-21 Days After Application ECHCO (ECHCO (Echinochloa colonum, junglerice), 70 g ae/ha): 100%
GR50 ECHCO (ECHCO (Echinochloa colonum, junglerice), dose to kill or control 50 percent): <4.38 g ae/ha
GR90 ECHCO (ECHCO (Echinochloa colonum, junglerice), dose to kill or control 90 percent): 12.9 g ae/ha
Mean Visual Injury (%)-21 Days After Application LEFCH (LEFCH (Leptochloa chinensis, Chinese sprangletop), 4.38 g ae/ha): 3%
Mean Visual Injury (%)-21 Days After Application LEFCH (LEFCH (Leptochloa chinensis, Chinese sprangletop), 8.75 g ae/ha): 0%
Mean Visual Injury (%)-21 Days After Application LEFCH (LEFCH (Leptochloa chinensis, Chinese sprangletop), 17.5 g ae/ha): 20%
Mean Visual Injury (%)-21 Days After Application LEFCH (LEFCH (Leptochloa chinensis, Chinese sprangletop), 35 g ae/ha): 42%
Mean Visual Injury (%)-21 Days After Application LEFCH (LEFCH (Leptochloa chinensis, Chinese sprangletop), 70 g ae/ha): 60%
GR50 LEFCH (LEFCH (Leptochloa chinensis, Chinese sprangletop), dose to kill or control 50 percent): 53.5 g ae/ha
GR90 LEFCH (LEFCH (Leptochloa chinensis, Chinese sprangletop), dose to kill or control 90 percent): >70 g ae/ha
Mean Visual Injury (%)-21 Days After Application ORYSA ‘Clearfield 171’ (ORYSA (Oryza sativa ‘Clearfield 171’, rice), 4.38 g ae/ha): 0%
Mean Visual Injury (%)-21 Days After Application ORYSA ‘Clearfield 171’ (ORYSA (Oryza sativa ‘Clearfield 171’, rice), 8.75 g ae/ha): 12%
Mean Visual Injury (%)-21 Days After Application ORYSA ‘Clearfield 171’ (ORYSA (Oryza sativa ‘Clearfield 171’, rice), 17.5 g ae/ha): 15%
Mean Visual Injury (%)-21 Days After Application ORYSA ‘Clearfield 171’ (ORYSA (Oryza sativa ‘Clearfield 171’, rice), 35 g ae/ha): 35%
Mean Visual Injury (%)-21 Days After Application ORYSA ‘Clearfield 171’ (ORYSA (Oryza sativa ‘Clearfield 171’, rice), 70 g ae/ha): 47%
GR50 ORYSA ‘Clearfield 171’ (ORYSA (Oryza sativa ‘Clearfield 171’, rice), dose to kill or control 50 percent): >70 g ae/ha
GR90 ORYSA ‘Clearfield 171’ (ORYSA (Oryza sativa ‘Clearfield 171’, rice), dose to kill or control 90 percent): >70 g ae/ha
Mean Visual Injury (%)-21 Days After Application ORYSA ‘Wells’ (ORYSA (Oryza sativa ‘Wells’, rice), 4.38 g ae/ha): 0%
Mean Visual Injury (%)-21 Days After Application ORYSA ‘Wells’ (ORYSA (Oryza sativa ‘Wells’, rice), 8.75 g ae/ha): 0%
Mean Visual Injury (%)-21 Days After Application ORYSA ‘Wells’ (ORYSA (Oryza sativa ‘Wells’, rice), 17.5 g ae/ha): 0%
Mean Visual Injury (%)-21 Days After Application ORYSA ‘Wells’ (ORYSA (Oryza sativa ‘Wells’, rice), 35 g ae/ha): 10%
Mean Visual Injury (%)-21 Days After Application ORYSA ‘Wells’ (ORYSA (Oryza sativa ‘Wells’, rice), 70 g ae/ha): 23%
GR50 ORYSA ‘Wells’ (ORYSA (Oryza sativa ‘Wells’, rice), dose to kill or control 50 percent): >70 g ae/ha
GR90 ORYSA ‘Wells’ (ORYSA (Oryza sativa ‘Wells’, rice), dose to kill or control 90 percent): >70 g ae/ha
Mean Visual Injury (%)-21 Days After Application SCPJU (SCPJU (Scirpus juncoides, Japanese bulrush), 4.38 g ae/ha): 72%
Mean Visual Injury (%)-21 Days After Application SCPJU (SCPJU (Scirpus juncoides, Japanese bulrush), 8.75 g ae/ha): 100%
Mean Visual Injury (%)-21 Days After Application SCPJU (SCPJU (Scirpus juncoides, Japanese bulrush), 17.5 g ae/ha): 100%
Mean Visual Injury (%)-21 Days After Application SCPJU (SCPJU (Scirpus juncoides, Japanese bulrush), 35 g ae/ha): 100%
Mean Visual Injury (%)-21 Days After Application SCPJU (SCPJU (Scirpus juncoides, Japanese bulrush), 70 g ae/ha): 100%
GR50 SCPJU (SCPJU (Scirpus juncoides, Japanese bulrush), dose to kill or control 50 percent): <4.38 g ae/ha
GR90 SCPJU (SCPJU (Scirpus juncoides, Japanese bulrush), dose to kill or control 90 percent): 6.9 g ae/ha
Mean Visual Injury (%)-21 Days After Application SEBEX (SEBEX (Sesbania exaltata, hemp sesbania), 4.38 g ae/ha): 100%
Mean Visual Injury (%)-21 Days After Application SEBEX (SEBEX (Sesbania exaltata, hemp sesbania), 8.75 g ae/ha): 100%
Mean Visual Injury (%)-21 Days After Application SEBEX (SEBEX (Sesbania exaltata, hemp sesbania), 17.5 g ae/ha): 100%
Mean Visual Injury (%)-21 Days After Application SEBEX (SEBEX (Sesbania exaltata, hemp sesbania), 35 g ae/ha): 100%
Mean Visual Injury (%)-21 Days After Application SEBEX (SEBEX (Sesbania exaltata, hemp sesbania), 70 g ae/ha): 100%
GR50 SEBEX (SEBEX (Sesbania exaltata, hemp sesbania), dose to kill or control 50 percent): <4.38 g ae/ha
GR90 SEBEX (SEBEX (Sesbania exaltata, hemp sesbania), dose to kill or control 90 percent): <4.38 g ae/ha
